Data from the NIST ThermoML archive (doi:10.1016/j.jct.2010.03.009).
Numbers after ± are expanded uncertainties.

Test: mn = molality of the nth substance listed, in mol/kg
Conditions: 101 kPa, Liquid; for viscosity: Capillary tube (Ostwald / Ubbelohde) method; for mass density: Vibrating tube method

NC(=O)c1ccccc1O [2-hydroxybenzamide] + C[S+](C)[O-]
Conditions	mass density [kg/m3]	viscosity [mPa·s]
293.15 K, m1 = 0.0069	1100.6 ± 0.094	2.276 ± 0.014
293.15 K, m1 = 0.0091	1100.66 ± 0.094	2.279 ± 0.014
293.15 K, m1 = 0.0114	1100.72 ± 0.093	2.282 ± 0.014
293.15 K, m1 = 0.0137	1100.78 ± 0.093	2.285 ± 0.014
293.15 K, m1 = 0.016	1100.83 ± 0.091	2.287 ± 0.014
293.15 K, m1 = 0.0183	1100.86 ± 0.091	2.289 ± 0.014
293.15 K, m1 = 0.0229	1100.92 ± 0.091	2.294 ± 0.014
298.15 K, m1 = 0.0069	1095.59 ± 0.092	2.034 ± 0.013
298.15 K, m1 = 0.0091	1095.64 ± 0.09	2.038 ± 0.013
298.15 K, m1 = 0.0114	1095.68 ± 0.089	2.042 ± 0.013
298.15 K, m1 = 0.0137	1095.71 ± 0.089	2.045 ± 0.013
298.15 K, m1 = 0.016	1095.76 ± 0.089	2.048 ± 0.013
298.15 K, m1 = 0.0183	1095.79 ± 0.088	2.051 ± 0.013
298.15 K, m1 = 0.0229	1095.8 ± 0.088	2.056 ± 0.013
303.15 K, m1 = 0.0069	1090.56 ± 0.088	1.881 ± 0.012
303.15 K, m1 = 0.0091	1090.6 ± 0.088	1.884 ± 0.012
303.15 K, m1 = 0.0114	1090.63 ± 0.087	1.887 ± 0.012
303.15 K, m1 = 0.0137	1090.66 ± 0.087	1.889 ± 0.012
303.15 K, m1 = 0.016	1090.69 ± 0.086	1.892 ± 0.012
303.15 K, m1 = 0.0183	1090.7 ± 0.086	1.894 ± 0.012
303.15 K, m1 = 0.0229	1090.73 ± 0.087	1.899 ± 0.012
308.15 K, m1 = 0.0069	1085.51 ± 0.086	1.732 ± 0.011
308.15 K, m1 = 0.0091	1085.56 ± 0.086	1.737 ± 0.011
308.15 K, m1 = 0.0114	1085.59 ± 0.086	1.742 ± 0.011
308.15 K, m1 = 0.0137	1085.63 ± 0.086	1.747 ± 0.011
308.15 K, m1 = 0.016	1085.66 ± 0.085	1.752 ± 0.011
308.15 K, m1 = 0.0183	1085.69 ± 0.085	1.756 ± 0.011
308.15 K, m1 = 0.0229	1085.72 ± 0.084	1.763 ± 0.011
310.15 K, m1 = 0.0069	1083.5 ± 0.086	1.644 ± 0.011
310.15 K, m1 = 0.0091	1083.55 ± 0.085	1.645 ± 0.011
310.15 K, m1 = 0.0114	1083.58 ± 0.084	1.646 ± 0.011
310.15 K, m1 = 0.0137	1083.6 ± 0.084	1.647 ± 0.011
310.15 K, m1 = 0.016	1083.62 ± 0.084	1.647 ± 0.011
310.15 K, m1 = 0.0183	1083.65 ± 0.084	1.648 ± 0.011
310.15 K, m1 = 0.0229	1083.66 ± 0.084	1.649 ± 0.011
313.15 K, m1 = 0.0069	1080.47 ± 0.084	1.563 ± 0.01
313.15 K, m1 = 0.0091	1080.52 ± 0.084	1.564 ± 0.01
313.15 K, m1 = 0.0114	1080.55 ± 0.083	1.565 ± 0.01
313.15 K, m1 = 0.0137	1080.58 ± 0.083	1.566 ± 0.01
313.15 K, m1 = 0.016	1080.6 ± 0.083	1.567 ± 0.01
313.15 K, m1 = 0.0183	1080.62 ± 0.083	1.567 ± 0.01
313.15 K, m1 = 0.0229	1080.64 ± 0.082	1.569 ± 0.01
